These results are taken from patent US8093282B2, “Therapeutic N-aryl or N-heteroaryl pyrazolidine and pyrazolidinone derivatives” (Allergan, Inc., priority 2008, dated 2012).

In the assay the test system is lashes and adjacent hairs of the treated eye. In words: Eyelash / hair growth observed in glaucoma patients treated in one eye. The conditions noted are these: glaucoma patient treated in only one eye. Type of assay: in vivo, human. The text has this: In the course of treating patients having glaucoma, treatment may only be appropriate in one eye. […] The lash appearance on the lids of the treated eyes would have appeared quite attractive if it represented a bilateral phenomenon. As a result of its asymmetric nature, the long lashes on one side could be construed as disturbing from a cosmetic standpoint. A systemic examination was preformed as a result of the asymmetric phenomenon. It soon became apparent that this altered appearance was not an isolated finding. […] Definite differences could be identified to varying degrees in the lashes and adjacent hairs of all patients who were taking the drug on a unilateral basis for longer than 6 months.
The changes in the lashes were apparent on gross inspection in several patients once attention was focused on the issue. In those with light colored hair and lashes, the differences were only seen easily with the aid of the high magnification and lighting capabilities of the slit lamp biomicroscope. In the course of glaucoma follow-up examination, attention is generally immediately focused on the eye itself. As a result of the high power magnification needed only one eye is seen at a time and the eye is seen at a high enough power that the lashes are not in focus. […]

Regarding `CCNC(=O)CCC/C=C\C[C@@H]1[C@@H](/C=C/[C@@H](O)CCc2ccccc2)[C@H](O)C[C@@H]1O` [bimatoprost], the “lash appearance in the treated eye versus the non-treated eye” value is “longer, thicker, and fuller”.
